According to PubChem BioAssay AID248 (DTP/NCI, 2004):
Values joined by “and” are separate entries in the source; they are usually repeats but may differ in a detail not shown here. Identical values can stand only once. Inconclusive results and toxic doses are left out.

Test system: L1210 leukemia ip in BDF1 mice, survival T/C
Test: NCI In Vivo Anticancer Drug Screen. Data for tumor model L1210 Leukemia (intraperitoneal) in B6D2F1 (BDF1) mice
Settings: endpoint: mean survival time, higher = longer survival
In short: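 Ratio derived from survival: compound-dosed mice over vehicle-dosed mice, all bearing a transplantable tumor.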

[1] = dose: 100.0 mg/kg/injection, schedule: Q01DX001 (ip), vehicle: Klucel (hydroxypropylcellulose) (HPC)
[2] = dose: 100.0 mg/kg/injection, schedule: Q04DX003 (ip), vehicle: Klucel (hydroxypropylcellulose) (HPC)
[3] = dose: 200.0 mg/kg/injection, schedule: Q01DX001 (ip), vehicle: Klucel (hydroxypropylcellulose) (HPC)
[4] = dose: 200.0 mg/kg/injection, schedule: Q04DX003 (ip), vehicle: Klucel (hydroxypropylcellulose) (HPC)
[5] = dose: 400.0 mg/kg/injection, schedule: Q01DX001 (ip), vehicle: Klucel (hydroxypropylcellulose) (HPC)
[6] = dose: 400.0 mg/kg/injection, schedule: Q04DX003 (ip), vehicle: Klucel (hydroxypropylcellulose) (HPC)
[7] = dose: 100.0 mg/kg/injection, schedule: Q04DX003 (ip), vehicle: saline with Tween-80
[8] = dose: 200.0 mg/kg/injection, schedule: Q04DX003 (ip), vehicle: saline with Tween-80
[9] = dose: 400.0 mg/kg/injection, schedule: Q04DX003 (ip), vehicle: saline with Tween-80
[10] = dose: 100.0 mg/kg/injection, schedule: Q01DX009 (ip), vehicle: Klucel (hydroxypropylcellulose) (HPC)
[11] = dose: 200.0 mg/kg/injection, schedule: Q01DX009 (ip), vehicle: Klucel (hydroxypropylcellulose) (HPC)
[12] = dose: 400.0 mg/kg/injection, schedule: Q01DX009 (ip), vehicle: Klucel (hydroxypropylcellulose) (HPC)
[13] = dose: 100.0 mg/kg/injection, schedule: Q04DX003 (ip), vehicle: saline
[14] = dose: 200.0 mg/kg/injection, schedule: Q04DX003 (ip), vehicle: saline
[15] = dose: 400.0 mg/kg/injection, schedule: Q04DX003 (ip), vehicle: saline
[16] = dose: 5.0 mg/kg/injection, schedule: Q01DX001 (ip), vehicle: saline
[17] = dose: 10.0 mg/kg/injection, schedule: Q01DX001 (ip), vehicle: saline
[18] = dose: 100.0 mg/kg/injection, schedule: Q01DX001 (ip), vehicle: saline
[19] = dose: 20.0 mg/kg/injection, schedule: Q01DX001 (ip), vehicle: saline
[20] = dose: 40.0 mg/kg/injection, schedule: Q01DX001 (ip), vehicle: saline
[21] = dose: 200.0 mg/kg/injection, schedule: Q01DX001 (ip), vehicle: saline
[22] = dose: 400.0 mg/kg/injection, schedule: Q01DX001 (ip), vehicle: saline

With `O=S(=O)(Cc1ccccc1)CC(Cl)c1ccccc1` (stereo not drawn) the T/C [1] was 98 % of control, the T/C [2] was 97 % of control and the T/C [3] was 98 % of control. The T/C [4] was 101 % of control, the T/C [5] was 104 % of control and the T/C [6] was 92 % of control.
In the case of `CCCOc1ccc(-c2nc(-c3ccc(N=Cc4ccc(N(CCCOS(C)(=O)=O)CCCOS(C)(=O)=O)cc4)cc3)cs2)cc1`, the T/C [7] is reported as 91 % of control, the T/C [8] is reported as 86 % of control and the T/C [9] is reported as 89 % of control.
For `COc1ccc2c(c1)CCC1=C2CCC2(C)C(=O)OC(=O)C12` (stereo not drawn), the T/C [10] was 103 % of control, the T/C [2] was 102 % of control and the T/C [11] was 97 % of control. For the same compound, the T/C [4] was 93 % of control, the T/C [12] was 101 % of control and the T/C [6] was 111 % of control.
With `OC1c2ccccc2-c2ccccc21` the T/C [13] was 91 % of control, the T/C [14] was 93 % of control and the T/C [15] was 93 % of control.
With `CC(C)CCCC(C)C1CCC2C3CC=C4CC(O[N+](=O)[O-])CCC4(C)C3CCC12C` (stereo not drawn) the T/C (dose: 100.0 mg/kg/injection, schedule: Q04DX002 (ip), vehicle: saline with Tween-80) was 102 % of control, the T/C (dose: 200.0 mg/kg/injection, schedule: Q04DX002 (ip), vehicle: saline with Tween-80) was 112 % of control and the T/C (dose: 400.0 mg/kg/injection, schedule: Q04DX002 (ip), vehicle: saline with Tween-80) was 102 % of control.
With `O=C(NC1CCCCC1)Oc1cccc(NC(=S)Nc2ccccc2)c1` the T/C [10] was 100 % of control, the T/C [11] was 97 % of control and the T/C [12] was 92 % of control.
With `C=CCN(CC=C)P(=O)(N(CC=C)CC=C)N1CC1` the T/C (dose: 3.0 mg/kg/injection, schedule: Q01DX015 (ip), vehicle: saline) was 151 % of control, the T/C [16] was 117 % of control and the T/C (dose: 5.0 mg/kg/injection, schedule: Q01DX015 (ip), vehicle: saline) was 155 % of control. The T/C (dose: 7.0 mg/kg/injection, schedule: Q01DX015 (ip), vehicle: saline) was 173 % of control, the T/C [17] was 117 % of control and the T/C (dose: 11.0 mg/kg/injection, schedule: Q01DX015 (ip), vehicle: saline) was 178 % of control. The T/C [18] was 175 % of control.
With `CCN1/C(=C/C(C)=C/c2[se]c3ccccc3[n+]2CC)[Se]c2ccc(OC)cc21` the T/C [16] was 105 % of control, the T/C [17] was 100 % of control and the T/C [19] was 97 % of control. For the same compound, the T/C [20] was 100 % of control.
In the case of `Cc1cc(NS(=O)(=O)c2ccc(N=Nc3ccc(N)nc3N)cc2)nc(C)n1`, the T/C [18] is reported as 102 % of control, the T/C [21] is reported as 105 % of control and the T/C [22] is reported as 100 % of control.
For `CN(C)CC1(c2ccccc2)CC[N+](C)(C)C1` (stereo not drawn), the T/C (dose: 75.0 mg/kg/injection, schedule: Q01DX001 (ip), vehicle: saline) was 89 % of control and the T/C (dose: 150.0 mg/kg/injection, schedule: Q01DX001 (ip), vehicle: saline) was 93 % of control.
In the case of `O=C1c2cc(Cl)cc(Cl)c2-c2c(NC(=O)C(Cl)Cl)cc(Cl)cc21`, the T/C [10] is reported as 91 % of control, the T/C [2] is reported as 95 % of control and the T/C [4] is reported as 98 % of control. The T/C [6] was 93 % of control.
In the case of `O=[N+]([O-])c1c(O)cc(O)c2ccccc12`, the T/C [16] is reported as 102 % of control, the T/C [17] is reported as 106 % of control and the T/C [19] is reported as 101 % of control. The T/C [20] was 102 % of control and the T/C (dose: 80.0 mg/kg/injection, schedule: Q01DX001 (ip), vehicle: saline) was 104 % of control.
For `CC(C)C1CCC(NC(=O)Nc2ccccc2)CC1` (stereo not drawn), the T/C (dose: 25.0 mg/kg/injection, schedule: Q01DX009 (ip), vehicle: saline with Tween-80) was 93 % of control, the T/C (dose: 25.0 mg/kg/injection, schedule: Q04DX003 (ip), vehicle: saline with Tween-80) was 97 % of control and the T/C (dose: 50.0 mg/kg/injection, schedule: Q01DX009 (ip), vehicle: saline with Tween-80) was 95 % of control. The T/C (dose: 50.0 mg/kg/injection, schedule: Q04DX003 (ip), vehicle: saline with Tween-80) was 101 % of control, the T/C [1] was 111 % of control and the T/C (dose: 100.0 mg/kg/injection, schedule: Q01DX009 (ip), vehicle: saline with Tween-80) was 88 % of control. The T/C [2] was 94 % of control, the T/C [7] was 100 % of control and 106 % of control and the T/C [3] was 101 % of control. For the same compound, the T/C [4] was 101 % of control, the T/C [5] was 103 % of control and the T/C [6] was 94 % of control.
For `CCN(CC)CCOc1ccc(/C=C(/C(=O)c2ccccc2)c2ccccc2)cc1`, the T/C (dose: 100.0 mg/kg/injection, schedule: Q04DX003 (sc), vehicle: olive oil, sesame oil, peanut oil) was 101 % of control, the T/C (dose: 200.0 mg/kg/injection, schedule: Q04DX003 (sc), vehicle: olive oil, sesame oil, peanut oil) was 101 % of control and the T/C (dose: 400.0 mg/kg/injection, schedule: Q04DX003 (sc), vehicle: olive oil, sesame oil, peanut oil) was 101 % of control.
`O=C(Nc1cccc([N+](=O)[O-])c1)N1CCCC1` was tested, and the T/C (dose: 100.0 mg/kg/injection, schedule: Q01DX001 (ip), vehicle: carboxymethylcellulose (CMC)) was 98 % of control, the T/C (dose: 200.0 mg/kg/injection, schedule: Q01DX001 (ip), vehicle: carboxymethylcellulose (CMC)) was 102 % of control and the T/C (dose: 400.0 mg/kg/injection, schedule: Q01DX001 (ip), vehicle: carboxymethylcellulose (CMC)) was 100 % of control.
With `CCCCCCCCCCCCCCn1cnc2c(=S)nc[nH]c21` the T/C (dose: 12.5 mg/kg/injection, schedule: Q01DX005 (ip), vehicle: other) was 101 % of control, the T/C (dose: 25.0 mg/kg/injection, schedule: Q01DX005 (ip), vehicle: other) was 101 % of control and the T/C (dose: 50.0 mg/kg/injection, schedule: Q01DX005 (ip), vehicle: other) was 96 % of control. The T/C (dose: 100.0 mg/kg/injection, schedule: Q01DX005 (ip), vehicle: other) was 96 % of control and the T/C (dose: 200.0 mg/kg/injection, schedule: Q01DX005 (ip), vehicle: other) was 95 % of control.
For `CCOC(=O)C(C(=O)CC(C)C)C(C)C` (stereo not drawn), the T/C (dose: 50.0 mg/kg/injection, schedule: Q01DX001 (ip), vehicle: saline) was 103 % of control, the T/C [18] was 103 % of control and the T/C [21] was 109 % of control. The T/C [22] was 101 % of control.
In the case of `C=CCOP(=O)(N1CC1CC)N1CC1CC` (stereo not drawn), the T/C (dose: 10.0 mg/kg/injection, schedule: Q01DX015 (ip), vehicle: saline) is reported as 103 % of control, the T/C (dose: 20.0 mg/kg/injection, schedule: Q01DX015 (ip), vehicle: saline) is reported as 96 % of control and the T/C (dose: 40.0 mg/kg/injection, schedule: Q01DX015 (ip), vehicle: saline) is reported as 102 % of control. For the same compound, the T/C (dose: 80.0 mg/kg/injection, schedule: Q01DX015 (ip), vehicle: saline) was 108 % of control.
In the case of `FCCSc1ncnc2nc[nH]c12`, the T/C (dose: 20.0 mg/kg/injection, schedule: Q04DX003 (ip), vehicle: saline with Tween-80) is reported as 113 % of control, the T/C (dose: 29.5 mg/kg/injection, schedule: Q04DX003 (ip), vehicle: saline with Tween-80) is reported as 116 % of control and the T/C [7] is reported as 159 % of control.
For `O=C1c2ccccc2CCCC1N1CCOCC1` (stereo not drawn), the T/C [7] was 95 % of control, the T/C [8] was 94 % of control and the T/C [9] was 87 % of control.
For `Brc1ccc2c(c1)nc1n2CCC1`, the T/C (dose: 100.0 mg/kg/injection, schedule: Q01DX001 (ip), vehicle: acetone) was 105 % of control, the T/C [13] was 104 % of control and the T/C (dose: 200.0 mg/kg/injection, schedule: Q01DX001 (ip), vehicle: acetone) was 108 % of control. For the same compound, the T/C [14] was 111 % of control, the T/C (dose: 400.0 mg/kg/injection, schedule: Q01DX001 (ip), vehicle: acetone) was 94 % of control and the T/C [15] was 101 % of control.
`ClCCN(CCCl)c1ccc(C=Nc2ccc(-c3csc(-c4ccccc4)n3)c(Cl)c2)cc1` was tested, and the T/C (dose: 100.0 mg/kg/injection, schedule: Q01DX001 (sc), vehicle: carboxymethylcellulose (CMC)) was 94 % of control, the T/C (dose: 200.0 mg/kg/injection, schedule: Q01DX001 (sc), vehicle: carboxymethylcellulose (CMC)) was 97 % of control and the T/C (dose: 400.0 mg/kg/injection, schedule: Q01DX001 (sc), vehicle: carboxymethylcellulose (CMC)) was 103 % of control.
In the case of `O=C1C=CC2=Nc3ccccc3CCC2=C1`, the T/C (dose: 75.0 mg/kg/injection, schedule: Q01DX001 (ip), vehicle: steriod suspending solution) is reported as 93 % of control, the T/C (dose: 150.0 mg/kg/injection, schedule: Q01DX001 (ip), vehicle: steriod suspending solution) is reported as 93 % of control and the T/C (dose: 300.0 mg/kg/injection, schedule: Q01DX001 (ip), vehicle: steriod suspending solution) is reported as 92 % of control.
